The record followed here is US6809091B1, “Substances capable of inducing apoptosis” (Takara Bio Inc., priority 1998, dated 2004).

For one data set, the system named is human IL-1α. As to the kind of experiment: cytokine production in DSEK cells, ELISA. The data set is classed as cell-based. To be noted: DSEK cell incubation, supernatant every 24 hours. How it is done: Now, in the DSEK cell incubation, 150 μl/well of the supernatant liquid of the medium were recovered every 24 hours and influence of 4-hydroxy-2-cyclopenten-1-one or 4,5-dihydroxy-2-pentenal on the production of cytokines (human TGF-β, human FGF-β, human IL-1α and human IL-10) was measured using an ELISA-kit specific to each of the cytokine (the kit manufactured by INTERGEN or human FGF-β and human IL-10; and the kit manufactured by Promega for human IL-1α and human TGF-β).
For orientation: In an ELISA, binding on a coated surface is turned into a signal by an enzyme label.

Another data set relates to mice. As to the kind of experiment: acute toxicity, single oral administration. The data set is classed as in vivo. To be noted: single oral administration of 100 mg/kg. How it is done:
When a physiologically active effective dose of the heat-treated product of the present invention and partially purified product thereof and the compound of the present invention are/is administered to mice, no acute toxicity is noted.

Data set [1] concerns hIGF-1 production in Hs68 cells. As to the kind of experiment: induction of hIGF-1 production, ELISA. The data set is classed as cell-based, human. Conditions: for time at which the inducing activity of the hIGF production became maximum: 100 μM or more. How it is done: Hs 68 cells (ATCC CRL-1635) which were human […] were incubated on a D-MEM medium (manufactured by Gibco BRL) containing 10% of fetal bovine serum (FBS manufactured by BioWhittaker) at 37° C. in the presence of 5% of CO2 until the cells were saturated in the culture medium, a trypsin-EDTA solution (manufactured by BioWhittaker) was suspended in the above medium to make 3×10^5 cells/ml and each 200 μl of the suspension were placed in each well of a 96-well microtiter plate. After five days from the incubation, the medium was discarded at the stage where the cells were almost saturated in the culture medium and a medium containing 5, 10, 20, 40, 100 or 200 μM of 4,5-dihydroxy-2-pentenal or 4-hydroxy-2-cyclopenten-1-one was added thereto. A time course of 96 hours was adopted and, every 24 hours, the supernatant liquid of the incubated medium was recovered and the influence of 4,5-dihydroxy-2-pentenal and 4-hydroxy-2-cyclopenten-1-one on the induction of hIGF-1 production in Hs68 cells was measured using an ELISA-kit for hIGF-1 (manufactured by Diagnostic System Labo).

Data set [2] relates to hepatoblastoma HepG2 cells. As to the kind of experiment: cell growth of HepG2 cells, Premix WST-1. It counts as cell-based, human. How it is done:
HepG2 cells (ACTT HB-8065) which were the cell strains established from the patients suffering from primary hepatoblastoma were suspended in a DMEM medium (manufactured by Gibco) containing 10% of FBS (manufactured by BioWhittaker) to an extent of 3.8×10^3 cells/ml, each 200 μl of the suspension were placed in each well of a 96-well microtiter plate and incubated at 37° C. in the presence of 5% carbon dioxide gas until the cells saturated in an incubator, the medium was exchanged, then 4-hydroxy-2-cyclopenten-1-one or […], the mixture was incubated for 24, 48 or 72 hours, 10 μl of Premix WST-1 (MK 400; manufactured by Takara Shuzo) were added thereto, the mixture was made to react at 37° C. for three hours and the value (A450-650) obtained by subtracting the absorbance at 650 nm (A650) from that at 450 nm (A450) was defined as a degree of cell growth.
On the technique in general: Tetrazolium dyes change colour on reduction, which living cells bring about.

The test system of data set [3] is heat shock protein of 70 kDa in HL-60. Description: induction of heat shock protein of 70 kDa, SDS-PAGE and blotting. The data set is classed as cell-based, human. On the set-up: key: “−” means no induction; “±” means a little induction; “+” shows the intensity of induction and the more the “+”, the more the induction; ++: “+” shows the intensity of induction and the more the “+”, the more the induction; +++: “+” shows the intensity of induction and the more the “+”, the more the induction. Conditions: six hours.

Take `Nc1nc2c(ncn2C2C=CC(=O)C2)c(=O)[nH]1` (stereo not drawn) [4-(9-guaninyl)-2-cyclopenten-1-one]: the “production of human IL-1α” value in the data set on human IL-1α is given as “activated”.

Regarding `O=CC=CC(O)CO` (single isomer, unassigned) [4,5-dihydroxy-2-pentenal, trans-4,5-dihydroxy-2-pentenal], the death entry with mice is listed as “no case of death”. Besides, the “Inducing Activity of the hIGF-1 Production” value in data set [1] (40 μM, 24 hours) turned out to be 0 ng/mL; in data set [1] (40 μM, 48 hours), 0 ng/mL; in data set [1] (40 μM, 72 hours), 0 ng/mL; in data set [1] (40 μM, 96 hours) it was 0 ng/mL; in data set [1] (100 μM, 24 hours), 15.3 ng/mL; in data set [1] (100 μM, 48 hours) it was 10.0 ng/mL. Further, the “Inducing Activity of the hIGF-1 Production” value in data set [1] (100 μM, 72 hours) was determined as 5.2 ng/mL; in data set [1] (100 μM, 96 hours), 4.6 ng/mL; in data set [1] (200 μM, 24 hours) it was 11.3 ng/mL; in data set [1] (200 μM, 48 hours), 11.1 ng/mL; in data set [1] (200 μM, 72 hours), 9.9 ng/mL; in data set [1] (200 μM, 96 hours) it was 4.5 ng/mL. In data set [1], the “time at which the inducing activity of the hIGF production became maximum” value was 24 h. Further, the “Degree of Cell Growth” value came to 3.39 A450-650 in data set [2] (25 μM, 24 hours); 2.69 A450-650 in data set [2] (25 μM, 48 hours); 1.70 A450-650 in data set [2] (25 μM, 72 hours); 1.97 A450-650 in data set [2] (50 μM, 24 hours); 2.96 A450-650 in data set [2] (50 μM, 48 hours); 1.70 A450-650 in data set [2] (50 μM, 72 hours). The “Degree of Cell Growth” value in data set [2] (100 μM, 24 hours) is 1.81 A450-650; in data set [2] (100 μM, 48 hours) it was 2.70 A450-650; in data set [2] (100 μM, 72 hours) it was 0.89 A450-650; in data set [2] (150 μM, 24 hours) it was 1.40 A450-650; in data set [2] (150 μM, 48 hours) it was 0.79 A450-650; in data set [2] (150 μM, 72 hours), 0.35 A450-650. Further, the “production of human IL-1α” value with human IL-1α was “activated”. Also, the “intensity of induction of heat shock protein of 70 kDa” value in data set [3] (HL-60, 1.25 μM) was “−”.

Regarding `O=C/C=C/C1COC(/C=C/C(O)CO)O1` (stereo not drawn) [2-(trans-3,4-dihydroxy-1-butenyl)-4-(trans-2-formylvinyl)-1,3-dioxolane], the “production of human IL-1α” value with human IL-1α is “activated”.

On to `O=C1C=CC(O)C1` (stereo not drawn) [4-hydroxy-2-cyclopenten-1-one], for which the death result in the data set on mice is given as “no case of death”. The hIGF-1 inducing activity result in data set [1] is given as “stronger than that of 4,5-dihydroxy-2-pentenal”. Further, the “Inducing Activity of the hIGF-1 Production” value in data set [1] (40 μM, 24 hours) was determined as 0 ng/mL; in data set [1] (40 μM, 48 hours), 0 ng/mL; in data set [1] (40 μM, 72 hours), 0 ng/mL; in data set [1] (40 μM, 96 hours), 0 ng/mL; in data set [1] (100 μM, 24 hours), 39.9 ng/mL; in data set [1] (100 μM, 48 hours), 10.0 ng/mL. In addition, the “Inducing Activity of the hIGF-1 Production” value turned out to be 9.6 ng/mL in data set [1] (100 μM, 72 hours); 4.4 ng/mL in data set [1] (100 μM, 96 hours); 37.9 ng/mL in data set [1] (200 μM, 24 hours); 10.4 ng/mL in data set [1] (200 μM, 48 hours); 9.9 ng/mL in data set [1] (200 μM, 72 hours); 4.2 ng/mL in data set [1] (200 μM, 96 hours). Also, the “time at which the inducing activity of the hIGF production became maximum” value in data set [1] stood at 24 h. The “Degree of Cell Growth” value is listed as 1.30 A450-650 in data set [2] (25 μM, 24 hours); 0.70 A450-650 in data set [2] (25 μM, 48 hours); 0.49 A450-650 in data set [2] (25 μM, 72 hours); 1.38 A450-650 in data set [2] (50 μM, 24 hours); 0.81 A450-650 in data set [2] (50 μM, 48 hours); 0.47 A450-650 in data set [2] (50 μM, 72 hours). The “Degree of Cell Growth” value in data set [2] (100 μM, 24 hours) was 1.31 A450-650; in data set [2] (100 μM, 48 hours), 0.56 A450-650; in data set [2] (100 μM, 72 hours), 0.35 A450-650; in data set [2] (150 μM, 24 hours), 1.23 A450-650; in data set [2] (150 μM, 48 hours), 0.43 A450-650; in data set [2] (150 μM, 72 hours), 0.30 A450-650. In addition, in the data set on human IL-1α, the “production of human IL-1α” value was “inhibited”. In addition, the “intensity of induction of heat shock protein of 70 kDa” value in data set [3] (HL-60, 2.5 μM) is recorded as “−”; in data set [3] (HL-60, 10 μM) it was “+”.
